Results published in article PMC4632086, “Effects and possible mechanisms of action of acacetin on the behavior and eye morphology of Drosophila models of Alzheimer’s disease” (Scientific Reports, 2015).
Like-named read-outs stand apart in the source and are kept apart here.

What was measured:
human BACE-1 = conditions: cited from earlier work
recombinant human BACE-1 = biological target: T1, recombinant human BACE-1 (Homo sapiens, UniProt P56817); assay: FRET-based enzyme assay, BACE-1 inhibition; assay type: biochemical; conditions: for IC50: pH 4.5, 1 h at 25 °C; for Slope ± SE: slope of concentration-inhibition fit
T1 construct: purchased R&D Systems (Minneapolis, MN, USA)

[1] = system: transgenic Drosophila AD models; parameters: method as in PMID 22348084; conditions: five different transgenic Drosophila AD models; cited from earlier work

T1 sequence (P56817 46-501): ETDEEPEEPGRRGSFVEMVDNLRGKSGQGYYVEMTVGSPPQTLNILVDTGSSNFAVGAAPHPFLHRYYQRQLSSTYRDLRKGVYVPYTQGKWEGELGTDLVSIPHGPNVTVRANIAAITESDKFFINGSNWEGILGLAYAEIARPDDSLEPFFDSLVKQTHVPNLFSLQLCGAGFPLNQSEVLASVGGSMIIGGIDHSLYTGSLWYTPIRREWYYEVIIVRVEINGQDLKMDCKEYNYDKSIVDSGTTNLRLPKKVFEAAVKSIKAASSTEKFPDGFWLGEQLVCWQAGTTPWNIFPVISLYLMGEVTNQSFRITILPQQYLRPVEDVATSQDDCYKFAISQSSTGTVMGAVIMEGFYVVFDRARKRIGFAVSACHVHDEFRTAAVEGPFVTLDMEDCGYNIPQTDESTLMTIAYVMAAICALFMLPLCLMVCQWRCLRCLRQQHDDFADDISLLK

## C/C=C/c1cc(=O)c2c(C)cc(OC)c([C@@H]3O[C@H](CO)[C@@H](O)[C@H](O)[C@H]3O)c2o1 [C-2′-decoumaroyl-aloeresin G]
Human BACE-1; benzopyranoids
  IC50: 20.5 µM

## CC1(C)CC[C@]2(C(=O)O)CC[C@]3(C)C(=CC[C@@H]4[C@@]5(C)C[C@@H](O)[C@H](O)C(C)(C)[C@@H]5CC[C@]43C)[C@@H]2C1 [Maslinic acid, maslinic acid]
Recombinant human BACE-1; IC50, μM (95% CL)
  IC50: 488 µM
Recombinant human BACE-1
  Slope ± SE: 1.4 ± 0.09

## CC1(C)CC[C@]2(C(=O)O)CC[C@]3(C)C(=CC[C@@H]4[C@@]5(C)CC[C@H](O)C(C)(C)[C@@H]5CC[C@]43C)[C@@H]2C1 [Oleanolic acid, oleanolic acid]
Recombinant human BACE-1; read-out: IC50, μM (95% CL)
  IC50: 355 µM

## COc1ccc(-c2cc(=O)c3c(O)cc(O)cc3o2)cc1 [Pure acacetin, acacetin]
Recombinant human BACE-1; read-out: IC50, μM (95% CL)
  IC50: 81.2 µM
Recombinant human BACE-1
  Slope ± SE: 0.4 ± 0.03

## COc1cc(C)c2c(=O)cc(C[C@@H](C)O)oc2c1[C@@H]1O[C@H](CO)[C@@H](O)[C@H](O)[C@H]1OC(=O)/C=C/c1ccc(O)cc1 [aloeresin D]
Human BACE-1; benzopyranoids
  IC50: 39 µM

## C=C[C@@](C)(/C=C/c1ccc(O)cc1)CCC=C(C)C [bakuchiol]
Human BACE-1
  IC50: 21.4 µM

## O=C(O[C@@H]1O[C@@H]2COC(=O)c3cc(O)c(O)c(O)c3-c3c(cc(O)c(O)c3O)C(=O)O[C@H]([C@H]1O)[C@@H]2O)c1cc(O)c(O)c(O)c1 [corilagin]
Human BACE-1; tannins
  IC50: 34 µM

## COc1cc(/C=C/C(=O)CC(=O)/C=C/c2ccc(O)c(OC)c2)ccc1O [curcumin]
[1]
  improved lifespan: up to 75%

## COc1cc2c(cc1OC)-c1cc3ccc4c(c3c[n+]1CC2)OCO4 [epiberberi]
Human BACE-1; alkaloids
  IC50: 8.55 µM

## O=C1O[C@H]2[C@@H]3OC(=O)c4cc(O)c(O)c(O)c4-c4c(cc(O)c(O)c4O)C(=O)OC[C@H]2O[C@@H](OC(=O)c2cc(O)c(O)c(O)c2)[C@@H]3OC(=O)c2cc(O)c(O)c3c2[C@@H]2C1=CC(=O)[C@](O)(O3)C2(O)O [geraniin]
Human BACE-1; tannins
  IC50: 4 µM

## COc1cc2c(cc1O)CC[n+]1cc3c4c(ccc3cc1-2)OCO4 [groenlandicine]
Human BACE-1; alkaloids
  IC50: 19.7 µM

## O=C(O)/C=C/c1ccc(O)cc1 [p-coumaric acid]
Human BACE-1; phenylpropanoids
  IC50: 90 µM
